# Measured values: US20020049173A1, “Alteration of cellular behavior by antisense modulation of mRNA processing” (priority 1999, published 2002)
# In the oligonucleotide strings, read from the 5' end, every base follows the letter of its sugar. An asterisk marks phosphorothioate; unmarked linkages are phosphodiester. Other units and linkages are bracketed, terminal groups are in braces. A string of capitals states the bases alone. e = 2'-O-(2-methoxyethyl) (MOE); [5mC] = 5-methylcytosine; d = 2'-deoxy (DNA)
# Key:
# [1] = tested on: murine IL-5 receptor α mRNA, soluble form; assay: Soluble IL-5 receptor α mRNA by Northern blot in BCL1 cells; format: cell-based, mouse; settings: BCL1 cells, 10 μM; for % inhibition of soluble IL-5 Rα: Northern blot, compared to untreated control, 2′-MOE gapmers; for % control soluble IL-5 Rα: 24 hours, uniform 2′-MOE
# Source text: (§1) Murine BCL1 cells were chosen for screening antisense oligonucleotides targeted to murine IL-5 receptor α. These are B-cell leukemia cells derived from a spontaneously arising tumor of BALB/c origin, and proliferate in response to murine or human IL-5. This is a CD5+line which resembles a subset of human chronic lymphocytic leukemia tumors and secretes IgM upon lipopolysaccharide stimulation. Cells were obtained from the American Type Culture Collection and cultured in RPMI 1640 medium supplemented with 10% heat-inactivated fetal bovine serum (Sigma Chemical Co., St. Louis, Mo.), 10 mM Hepes, pH 7.2, 50 μM 2-ME, 2 mM L-glutamine, 100 U/ml penicillin and 100 μg/ml streptomycin (Gibco, Grand Island, N.Y.).
# (§2) The effect of these compounds on both membrane and soluble forms of murine IL-5 receptor α were measured and are shown in Table 1B. Oligonucleotides were screened in BCL1 cells at a dose of 10 μM and IL-5 receptor α mRNA was measured by Northern blot. Percent inhibition is compared to untreated (no oligo) control.
# (§3) Total BCL1 cellular RNA was isolated using the RNeasy™ kit (Qiagen, Santa Clara Calif.) . Northern blotting was performed using standard methods. The cDNA probes were generated from oligonucleotides matching the exon sequences of either exons 2, 8, 9 or 10. Signals were quantitated using a Molecular Dynamics PhosphorImager.
# [2] = tested on: murine IL-5 receptor α mRNA, membrane form; assay: Membrane IL-5 receptor α mRNA by Northern blot in BCL1 cells; format: cell-based, mouse; settings: BCL1 cells, 10 μM; for % inhibition of membrane IL-5 Rα: Northern blot, compared to untreated control, 2′-MOE gapmers; for % control membrane IL-5 Rα / % inhib'n membrane IL-5 Rα: 24 hours, uniform 2′-MOE
# Source text: as §1, §2, §3
Substance,% inhibition of soluble IL-5 Rα [1] [%],% inhibition of membrane IL-5 Rα [2] [%],% control soluble IL-5 Rα [1] [%],% control membrane IL-5 Rα [2] [%],% inhib'n membrane IL-5 Rα [2] [%]
"18005 (AGCAGGCAGCTGTTGGGAGC; antisense; listed as DNA, chemistry not fully specified) [compound 18005]",59,55,–,–,–
"18006 (TGAGAAGATTAACAAGACGA; antisense; listed as DNA, chemistry not fully specified) [compound 18006]",65,59,–,–,–
18007 (eT*eG*e[5mC]*eA*eG*dA*dT*dG*dA*dG*dT*dG*dA*dG*dA*eA*eG*eA*eT*eT; antisense) [compound 18007],65,65,–,–,–
"18008 (ACTCTGCAGATGAGTGAGAA; antisense; listed as DNA, chemistry not fully specified) [compound 18008]",75,75,–,–,–
21750 (eG*eA*e[5mC]*eT*eT*e[5mC]*e[5mC]*eT*eT*eT*e[5mC]*e[5mC]*eT*eT*eT*e[5mC]*e[5mC]*eT*eG*eG) [compound 21750],–,–,197,8,92
21751 (e[5mC]*eA*eA*eG*eG*eA*e[5mC]*eT*eT*e[5mC]*e[5mC]*eT*eT*eT*e[5mC]*e[5mC]*eT*eT*eT*e[5mC]; splice-switching) [compound 21751],–,–,191,9,91
21752 (eG*e[5mC]*e[5mC]*eA*eT*eT*e[5mC]*eT*eA*e[5mC]*e[5mC]*eA*eA*eG*eG*eA*e[5mC]*eT*eT*e[5mC]) [compound 21752],–,–,194,6,–
21753 (eA*e[5mC]*eA*eA*eT*eG*eA*eG*eA*eT*eG*e[5mC]*e[5mC]*eA*eT*eT*e[5mC]*eT*eA*e[5mC]; splice-switching) [compound 21753],–,–,175,6,94
21754 (eT*eG*eT*eT*eG*eG*eG*eA*eG*e[5mC]*eA*e[5mC]*eA*eA*eT*eG*eA*eG*eA*eT; splice-switching) [compound 21754],–,–,184,8,92
21755 (eA*eG*e[5mC]*eA*eG*eG*e[5mC]*eA*eG*e[5mC]*eT*eG*eT*eT*eG*eG*eG*eA*eG*e[5mC]; splice-switching) [compound 21755],–,–,181,16,84
21756 (eA*eA*e[5mC]*eA*eA*eG*eA*e[5mC]*eG*eA*eA*eG*e[5mC]*eA*eG*eG*e[5mC]*eA*eG*e[5mC]; splice-switching) [compound 21756],–,–,166,6,94
21757 (eT*eG*eA*eG*eA*eA*eG*eA*eT*eT*eA*eA*e[5mC]*eA*eA*eG*eA*e[5mC]*eG*eA; splice-switching) [compound 21757],–,–,144,19,81
21758 (eT*eG*e[5mC]*eA*eG*eA*eT*eG*eA*eG*eT*eG*eA*eG*eA*eA*eG*eA*eT*eT; splice-switching) [compound 21758],–,–,116,31,69
21759 (eA*e[5mC]*eT*e[5mC]*eT*eG*e[5mC]*eA*eG*eA*eT*eG*eA*eG*eT*eG*eA*eG*eA*eA; splice-switching) [compound 21759],–,–,134,34,66
